Test system: aquaporin-3 mRNA in human keratinocytes
Test: AQP-3 mRNA expression in human keratinocytes by quantitative RT-PCR
Assay type: cell-based
Conditions: 24 h, 3% w/v glycerol glucoside in culture medium (450 mOsm), compared with 1% w/v glycerin, 2.25% w/v glucose, and 1.5% w/v glycerol glucoside + 0.5% w/v glycerin
Experimental: To this end, human keratinocytes were treated in triplicate in cell culture (37° C., Medium Cambrex No. CC-3158 incl. Supplement kit No. CC-4152; +0.1 mM CaCl2) for 24 h as follows: • Untreated control (corresponds to 330 mOsm, isomolar culture medium) • Addition of 1% w/v glycerin to the culture medium (corresponds to 450 mOsm, osmotic stress) • Addition of 1.5% w/v glycerol glucoside and 0.5% w/v glycerin to the culture medium (corresponds to 450 mOsm osmotic stress, mixture ratio regarding number of particles 1:1) • Addition of 3% w/v glycerol glucoside to the culture medium (corresponds to 450 mOsm, osmotic stress) • Addition of 2.25% w/v glucose to the culture medium (corresponds to 450 mOsm, osmotic stress)
The different amounts used are due to the different molecular weights of the substances. The contribution to the increase in osmolarity in the culture medium depends solely on the added particle number, and this is the same in all of the tests.
After harvest and lysis the entire RNA was isolated from the cells and the aquaporin-3 mRNA relatively contained was determined by means of quantitative RT-PCR.
The concentration indication w/v means mass per volume, wherein 1.0% w/v corresponds to one gram substance in 100 ml solution.

Substance: Glyceryl glucoside
- expression level of the aquaporin-3 mRNA relativized on 18S rRNA (stimulating effect): better stimulating effect than classic glycerin or glucose alone or a 1:1 mixture of glycerin and glyceryl glucoside
